Activity calls are given as the source filed them. No cut-off for these calls is given here.
What was measured:
[1] = Antiproliferative activity against human Simmiparib-resistant CAPAN-1 cells assessed as inhibition of cell growth incubated for 7 days by CCK-8 assay; type: functional, cell-based; settings: CAPAN-1, 168 h
CAPAN-1 [2] = experiment: Induction of apoptosis in human CAPAN-1 cells assessed as late apoptotic cells at 1 uM incubated for 48 hrs by Annexin-V/PI staining based flow cytometry analysis (reference value: 4.95%); type: functional
CAPAN-1 [3] = experiment: Induction of DNA double strand breaks in human CAPAN-1 cells assessed as increase in Chk1 phosphorylation at 0.1 to 1 uM incubated for 24 hrs by Western blot analysis; type: functional, cell-based; settings: dose 0.1-1 µM
[4] = system: Olaparib-resistant CAPAN-1; experiment: Antiproliferative activity against human Olaparib-resistant CAPAN-1 cells assessed as inhibition of cell growth incubated for 7 days by CCK-8 assay; type: functional, cell-based; settings: Olaparib-resistant CAPAN-1, 168 h
[5] = system: Olaparib-resistant CAPAN-1; experiment: Induction of apoptosis in human Olaparib-resistant CAPAN-1 cells assessed as late apoptotic cells at 0.5 uM incubated for 48 hrs by Annexin-V/PI staining based flow cytometry analysis (reference value: 3.67%); type: functional
CAPAN-1 [6] = experiment: Induction of DNA double strand breaks in human CAPAN-1 cells assessed as increase in RPA32 phosphorylation at 0.1 to 1 uM incubated for 24 hrs by Western blot analysis; type: functional, cell-based; settings: dose 0.1-1 µM
CAPAN-1 [7] = experiment: Antiproliferative activity against human CAPAN-1 BRCA2-/- cells assessed as inhibition of cell growth incubated for 7 days by CCK-8 assay; type: functional, cell-based; settings: CAPAN-1, 168 h
[8] = system: Olaparib-resistant CAPAN-1; experiment: Induction of apoptosis in human Olaparib-resistant CAPAN-1 cells assessed as early apoptotic cells at 0.1 uM incubated for 48 hrs by Annexin-V/PI staining based flow cytometry analysis (reference value: 8.50%); type: functional
[9] = system: Olaparib-resistant CAPAN-1; experiment: Induction of apoptosis in human Olaparib-resistant CAPAN-1 cells assessed as late apoptotic cells at 1 uM incubated for 48 hrs by Annexin-V/PI staining based flow cytometry analysis (reference value: 3.67%); type: functional
CAPAN-1 [10] = experiment: Induction of DNA double strand breaks in human CAPAN-1 cells assessed as increase in p-ATM foci formation at 0.1 to 1 uM incubated for 24 hrs by DAPI staining based confocal microscopic analysis; type: functional, cell-based; settings: dose 0.1-1 µM
CAPAN-1 [11] = experiment: Induction of apoptosis in human CAPAN-1 cells assessed as early apoptotic cells at 1 uM incubated for 48 hrs by Annexin-V/PI staining based flow cytometry analysis (reference value: 10.1%); type: functional
[12] = Antiproliferative activity against human Talazoparib-resistant CAPAN-1 cells assessed as inhibition of cell growth incubated for 7 days by CCK-8 assay; type: functional, cell-based; settings: CAPAN-1, 168 h
[13] = system: Olaparib-resistant CAPAN-1; experiment: Induction of DNA double strand breaks in Olaparib-resistant human CAPAN-1 cells assessed as increase in p-ATM foci formation at 0.1 to 1 uM incubated for 24 hrs by DAPI staining based confocal microscopic analysis; type: functional, cell-based; settings: dose 0.1-1 µM
[14] = system: Olaparib-resistant CAPAN-1; experiment: Induction of apoptosis in human Olaparib-resistant CAPAN-1 cells assessed as late apoptotic cells at 0.1 uM incubated for 48 hrs by Annexin-V/PI staining based flow cytometry analysis (reference value: 3.67%); type: functional
[15] = system: Olaparib-resistant CAPAN-1; experiment: Induction of apoptosis in human Olaparib-resistant CAPAN-1 cells assessed as early apoptotic cells at 0.5 uM incubated for 48 hrs by Annexin-V/PI staining based flow cytometry analysis (reference value: 8.50%); type: functional
CAPAN-1 [16] = experiment: Induction of DNA double strand breaks in human CAPAN-1 cells assessed as gamma-H2AX foci formation at 0.1 to 1 uM incubated for 24 hrs by DAPI staining based confocal microscopic analysis; type: functional, cell-based; settings: dose 0.1-1 µM
CAPAN-1 [17] = experiment: Induction of apoptosis in human CAPAN-1 cells assessed as early apoptotic cells at 0.1 uM incubated for 48 hrs by Annexin-V/PI staining based flow cytometry analysis (reference value: 10.1%); type: functional
MDA-MB-436 = experiment: Antiproliferative activity against human MDA-MB-436 BRCA1-/- cells assessed as inhibition of cell growth incubated for 7 days by CCK-8 assay; type: functional, cell-based; settings: MDA-MB-436, 168 h
CAPAN-1 [18] = experiment: Induction of DNA double strand breaks in human CAPAN-1 cells assessed as effect on RPA32 phosphorylation at 0.1 to 1 uM incubated for 24 hrs by DAPI staining based confocal microscopic analysis; type: functional, cell-based; settings: dose 0.1-1 µM
[19] = target: Voltage-gated inwardly rectifying potassium channel KCNH2 (Homo sapiens, UniProt Q12809); experiment: Inhibition of hERG; type: toxicity
[20] = system: Olaparib-resistant CAPAN-1; experiment: Induction of cell cycle arrest in human Olaparib-resistant CAPAN-1 cells assessed as accumulation of cell at S phase at 0.5 to 1 uM incubated for 24 hrs by […] staining based flow cytometry analysis; type: functional; settings: dose 0.5-1 µM
[21] = target: Poly [ADP-ribose] polymerase 1 (Homo sapiens, UniProt P09874); experiment: Inhibition of PARP1 (unknown origin) incubated for 1 hr by ELISA analysis
CAPAN-1 [22] = experiment: Induction of apoptosis in human CAPAN-1 cells assessed as late apoptotic cells at 0.1 uM incubated for 48 hrs by Annexin-V/PI staining based flow cytometry analysis (reference value: 4.95%); type: functional
[23] = system: Olaparib-resistant CAPAN-1; experiment: Induction of DNA double strand breaks in human Olaparib-resistant CAPAN-1 cells assessed as gamma-H2AX foci formation at 0.1 to 1 uM incubated for 24 hrs by DAPI staining based confocal microscopic analysis; type: functional, cell-based; settings: dose 0.1-1 µM
CAPAN-1 [24] = experiment: Induction of DNA double strand breaks in human CAPAN-1 cells assessed as increase in gamma-H2AX level at 0.1 to 1 uM incubated for 24 hrs by Western blot analysis; type: functional, cell-based; settings: dose 0.1-1 µM
CAPAN-1 [25] = experiment: Induction of apoptosis in human CAPAN-1 cells assessed as early apoptotic cells at 0.5 uM incubated for 48 hrs by Annexin-V/PI staining based flow cytometry analysis (reference value: 10.1%); type: functional
[26] = system: Olaparib-resistant CAPAN-1; experiment: Induction of apoptosis in human Olaparib-resistant CAPAN-1 cells assessed as early apoptotic cells at 1 uM incubated for 48 hrs by Annexin-V/PI staining based flow cytometry analysis (reference value: 8.50%); type: functional
CAPAN-1 [27] = experiment: Induction of cell cycle arrest in human CAPAN-1 cells assessed as accumulation of cell at S phase at 0.5 to 1 uM incubated for 24 hrs by […] staining based flow cytometry analysis; type: functional; settings: dose 0.5-1 µM
CAPAN-1 [28] = experiment: Induction of apoptosis in human CAPAN-1 cells assessed as late apoptotic cells at 0.5 uM incubated for 48 hrs by Annexin-V/PI staining based flow cytometry analysis (reference value: 4.95%); type: functional
[29] = system: Olaparib-resistant CAPAN-1; experiment: Induction of DNA double strand breaks in human Olaparib-resistant CAPAN-1 cells assessed as effect on RPA32 phosphorylation at 0.1 to 1 uM incubated for 24 hrs by DAPI staining based confocal microscopic analysis; type: functional, cell-based; settings: dose 0.1-1 µM
CAPAN-1 [30] = experiment: Induction of cell cycle arrest in human CAPAN-1 cells assessed as accumulation of cell at G2/M phase at 0.1 uM incubated for 24 hrs by […] staining based flow cytometry analysis; type: functional

Chain of Voltage-gated inwardly rectifying potassium channel KCNH2 (Q12809 whole entry): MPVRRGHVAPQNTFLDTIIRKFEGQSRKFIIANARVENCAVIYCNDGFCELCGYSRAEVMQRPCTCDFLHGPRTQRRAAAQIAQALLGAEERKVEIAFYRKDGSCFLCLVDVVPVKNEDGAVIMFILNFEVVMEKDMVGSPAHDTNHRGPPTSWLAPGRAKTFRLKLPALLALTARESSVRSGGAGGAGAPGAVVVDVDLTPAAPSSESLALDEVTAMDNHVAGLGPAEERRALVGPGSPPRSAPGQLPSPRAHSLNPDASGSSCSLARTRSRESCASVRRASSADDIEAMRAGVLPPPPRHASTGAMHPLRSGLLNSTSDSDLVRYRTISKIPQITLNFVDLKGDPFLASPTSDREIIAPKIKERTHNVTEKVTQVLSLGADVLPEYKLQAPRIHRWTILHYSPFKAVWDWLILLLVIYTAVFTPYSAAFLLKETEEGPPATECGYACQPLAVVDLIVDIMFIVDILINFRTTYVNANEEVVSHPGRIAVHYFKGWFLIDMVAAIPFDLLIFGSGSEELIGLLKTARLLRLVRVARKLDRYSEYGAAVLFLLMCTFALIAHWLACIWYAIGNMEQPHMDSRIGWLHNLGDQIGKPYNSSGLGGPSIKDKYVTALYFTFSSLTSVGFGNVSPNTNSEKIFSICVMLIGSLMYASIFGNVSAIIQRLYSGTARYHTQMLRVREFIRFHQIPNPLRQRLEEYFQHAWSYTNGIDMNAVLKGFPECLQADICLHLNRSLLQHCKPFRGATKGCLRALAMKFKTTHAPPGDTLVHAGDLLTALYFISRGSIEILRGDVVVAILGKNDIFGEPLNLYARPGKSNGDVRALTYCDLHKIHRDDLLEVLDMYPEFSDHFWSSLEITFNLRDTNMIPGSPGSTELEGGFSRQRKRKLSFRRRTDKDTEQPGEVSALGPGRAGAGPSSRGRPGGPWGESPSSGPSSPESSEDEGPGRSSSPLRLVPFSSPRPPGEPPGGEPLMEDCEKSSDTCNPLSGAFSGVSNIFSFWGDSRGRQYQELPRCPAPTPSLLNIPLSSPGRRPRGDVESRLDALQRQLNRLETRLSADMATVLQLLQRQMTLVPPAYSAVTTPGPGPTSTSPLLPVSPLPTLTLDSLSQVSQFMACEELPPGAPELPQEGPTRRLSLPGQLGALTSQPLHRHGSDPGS
Chain of Poly [ADP-ribose] polymerase 1 (P09874 whole entry): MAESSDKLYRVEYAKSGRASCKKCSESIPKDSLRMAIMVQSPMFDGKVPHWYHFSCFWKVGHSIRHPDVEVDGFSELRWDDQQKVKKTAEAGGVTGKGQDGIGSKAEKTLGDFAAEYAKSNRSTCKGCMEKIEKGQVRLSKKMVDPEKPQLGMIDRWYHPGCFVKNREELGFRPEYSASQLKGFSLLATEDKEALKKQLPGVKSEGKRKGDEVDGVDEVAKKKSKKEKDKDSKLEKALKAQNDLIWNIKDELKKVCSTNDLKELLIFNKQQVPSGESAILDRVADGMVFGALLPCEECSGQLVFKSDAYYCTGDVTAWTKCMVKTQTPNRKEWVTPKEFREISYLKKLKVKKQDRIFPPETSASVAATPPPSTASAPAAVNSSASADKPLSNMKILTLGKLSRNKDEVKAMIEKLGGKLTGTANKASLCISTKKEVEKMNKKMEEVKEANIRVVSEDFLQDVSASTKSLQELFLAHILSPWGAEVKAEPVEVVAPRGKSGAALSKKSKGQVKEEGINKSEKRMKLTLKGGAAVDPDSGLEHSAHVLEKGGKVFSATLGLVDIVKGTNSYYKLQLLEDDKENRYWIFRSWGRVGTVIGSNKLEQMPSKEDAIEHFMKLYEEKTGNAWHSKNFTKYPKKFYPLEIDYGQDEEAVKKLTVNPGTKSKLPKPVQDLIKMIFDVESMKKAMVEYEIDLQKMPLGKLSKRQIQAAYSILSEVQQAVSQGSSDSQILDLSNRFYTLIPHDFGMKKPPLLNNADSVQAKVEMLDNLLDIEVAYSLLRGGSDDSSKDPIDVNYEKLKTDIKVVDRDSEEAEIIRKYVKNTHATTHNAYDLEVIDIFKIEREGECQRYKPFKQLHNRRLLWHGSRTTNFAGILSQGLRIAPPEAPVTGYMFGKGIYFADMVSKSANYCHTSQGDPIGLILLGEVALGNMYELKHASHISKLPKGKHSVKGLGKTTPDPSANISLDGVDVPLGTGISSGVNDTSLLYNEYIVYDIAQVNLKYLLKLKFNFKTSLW

IC50 (MDA-MB-436): < 0.3 nM
IC50 [21]: 0.6 nM
Compound: COc1cccc(-c2nnc3n2C(C)CN(C(=O)c2cc(Cc4n[nH]c(=O)c5ccccc45)ccc2F)C3)n1 (stereo unspecified)
IC50 [1]: 0.3 nM
Activity (CAPAN-1 [2]): 43.9%
Activity (CAPAN-1 [3]): Active
IC50 [4]: 0.3 nM
Activity [5]: 29%
Activity (CAPAN-1 [6]): Active
IC50 (CAPAN-1 [7]): < 0.3 nM
Activity [8]: 17.6%
Activity [9]: 30.7%
Activity (CAPAN-1 [10]): Active
Activity (CAPAN-1 [11]): 41%
IC50 [12]: < 0.3 nM
Activity [13]: Active
Activity [14]: 4.6%
Activity [15]: 39.1%
Activity (CAPAN-1 [16]): Active
Activity (CAPAN-1 [17]): 37.9%
Activity (CAPAN-1 [18]): Active
IC50 [19]: 17.5 µM
Activity [20]: Active
Activity (CAPAN-1 [22]): 17.7%
Activity [23]: Active
Activity (CAPAN-1 [24]): Active
Activity (CAPAN-1 [25]): 40.7%
Activity [26]: 36.6%
Activity (CAPAN-1 [27]): Active
Activity (CAPAN-1 [28]): 42%
Activity [29]: Active
Activity (CAPAN-1 [30]): Active

From ChEMBL document CHEMBL5625224, “Identification of [1,2,4]Triazolo[4,3-a]pyrazine PARP1 inhibitors with overcome acquired resistance activities” (Eur J Med Chem, 2023)
